In patent US8039493B2, “Biaryl sulfonamide derivatives” (Hoffmann-La Roche Inc., priority 2008, dated 2011):

Tests used:
human LXR alpha = biological target: T1, human LXR alpha (Homo sapiens, UniProt Q13133); test: Radioligand binding assay (scintillation proximity), LXRα-LBD; settings: LXRα-LBD on SPA beads, read-out: LXRalpha Binding IC50
T1 construct: human LXR alpha (aa 164 to 447); made in house; host or cells: E. coli BL21 (pLysS)
T1 sequence (Q13133 164-447): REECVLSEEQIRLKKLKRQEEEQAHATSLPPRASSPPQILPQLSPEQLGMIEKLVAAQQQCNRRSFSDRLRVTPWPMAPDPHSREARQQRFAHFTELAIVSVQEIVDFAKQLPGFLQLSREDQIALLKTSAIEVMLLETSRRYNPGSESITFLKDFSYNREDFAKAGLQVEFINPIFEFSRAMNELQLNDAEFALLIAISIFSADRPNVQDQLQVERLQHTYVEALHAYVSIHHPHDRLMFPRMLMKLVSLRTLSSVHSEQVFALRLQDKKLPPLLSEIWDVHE
Method: (§1) The following tests were carried out in order to determine the activity of the compounds of the present invention. […] Mammalian expression vectors were constructed to express full-length human LXR alpha and LXR beta. […] To accomplish this, the portions of the sequences encoding the LBDs were amplified from the full-length clones by PCR and then subcloned into the plasmid vectors.
(§2) Induction, expression, and purification of LBD proteins were performed in E. coli strain BL21 (pLysS) cells by standard methods (Ref: Current Protocols in Molecular Biology, Wiley Press, edited by Ausubel et al).
(§3) Radioligand Binding Assay
(§4) LXR alpha and LXR beta receptor binding were assayed in buffer consisting of 50 mM HEPES, pH 7.4, 10 mM NaCl, 5 mM MgCl2. For each 96-well reaction, 500 ng of LXRα-LBD or 700 ng of LXR beta-LBD proteins were bound to 80 μg or 40 μg SPA beads respectively, in a final volume of 50 μl by shaking. The resulting slurry was incubated for 1 h at RT and centrifuged for 2 min at 1300×g. The supernatant containing unbound protein was removed, and the semi-dry pellet containing the receptor-coated beads was re-suspended in 50 μl of buffer. Radioligand (eg. 100,000 dpm of (N-(2,2,2-trifluoroethyl)-N-[4-(2,2,2-trifluoro-1-hydroxy-1-trifluoromethylethyl)-phenyl]-benzenesulfonamide)) was added, and the reaction incubated at RT for 1 h in the presence of test compounds, and then scintillation proximity counting was performed. All binding assays were performed in 96-well plates and the amount of bound ligand was measured on a Packard TopCount using OptiPlates (Packard). Dose response curves were measured within a range of concentration from 10^−10 M to 10^−4 M.

human LXR beta = biological target: T2, human LXR beta (Homo sapiens, UniProt P55055); test: Radioligand binding assay (scintillation proximity), LXR beta-LBD; settings: LXR beta-LBD on SPA beads, read-out: LXRbeta Binding IC50
T2 construct: human LXR beta (aa 155 to 460); made in house; host or cells: E. coli BL21 (pLysS)
T2 sequence (P55055 155-460): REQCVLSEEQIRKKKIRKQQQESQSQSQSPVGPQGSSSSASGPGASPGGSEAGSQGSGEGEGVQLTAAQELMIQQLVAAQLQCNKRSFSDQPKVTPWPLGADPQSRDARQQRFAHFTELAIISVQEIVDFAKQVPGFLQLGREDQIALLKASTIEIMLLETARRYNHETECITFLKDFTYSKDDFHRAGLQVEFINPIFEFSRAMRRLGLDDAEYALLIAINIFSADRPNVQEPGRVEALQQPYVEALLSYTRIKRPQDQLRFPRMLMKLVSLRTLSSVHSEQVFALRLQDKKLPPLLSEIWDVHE
Method: as §1, §2, §3, §4

IC50 (human LXR alpha)	IC50 (human LXR beta)	Compound
26 nM	19 nM	CC(C)CN(Cc1cccc(-c2cccc(S(C)(=O)=O)c2)c1)S(=O)(=O)c1ccccc1Cl [Example 43, 2-Chloro-N-isobutyl-N-(3′-methanesulfonyl-biphenyl-3-ylmethyl)-benzenesulfonamide]
3440 nM	30 nM	CC(C)CN(Cc1cncc(-c2cccc(S(C)(=O)=O)c2)c1)S(=O)(=O)c1ccccc1Cl [Example 44, 2-Chloro-N-isobutyl-N-[5-(3-methanesulfonyl-phenyl)-pyridin-3-ylmethyl]-benzenesulfonamide]
425 nM	2.3 nM	CC(C)CN(Cc1ccc(-c2cccc(S(C)(=O)=O)c2)cn1)S(=O)(=O)c1ccccc1Cl [Example 45, 2-Chloro-N-isobutyl-N-[5-(3-methanesulfonyl-phenyl)-pyridin-2-ylmethyl]-benzenesulfonamide]
1480 nM	49.5 nM	CC(C)CN(Cc1cccc(-c2cccc(S(C)(=O)=O)c2)n1)S(=O)(=O)c1ccccc1Cl [Example 47, 2-Chloro-N-isobutyl-N-[6-(3-methanesulfonyl-phenyl)-pyridin-2-ylmethyl]-benzenesulfonamide]
7860 nM	150 nM	CC(C)CN(Cc1ccnc(-c2cccc(S(C)(=O)=O)c2)c1)S(=O)(=O)c1ccccc1Cl [Example 48, 2-Chloro-N-isobutyl-N-[2-(3-methanesulfonyl-phenyl)-pyridin-4-ylmethyl]-benzenesulfonamide]
20100 nM	1560 nM	CCCN(Cc1cccc(-c2cccc(S(C)(=O)=O)c2)c1)S(=O)(=O)C(C)C [Example 49, Propane-2-sulfonic acid (3′-methanesulfonyl-biphenyl-3-ylmethyl)-propyl-amide]
2270 nM	805 nM	CC(C)CN(Cc1cccc(-c2cccc(S(C)(=O)=O)c2)c1)S(=O)(=O)C(C)C [Example 50, Propane-2-sulfonic acid isobutyl-(3′-methanesulfonyl-biphenyl-3-ylmethyl)-amide]
1630 nM	280 nM	CC(C)S(=O)(=O)N(Cc1cccc(-c2cccc(S(C)(=O)=O)c2)c1)CC1CCC1 [Example 51, Propane-2-sulfonic acid cyclobutylmethyl-(3′-methanesulfonyl-biphenyl-3-ylmethyl)-amide]
610 nM	33.5 nM	CC(C)S(=O)(=O)N(Cc1cccc(-c2cccc(S(C)(=O)=O)c2)c1)Cc1ccccc1F [Example 52, Propane-2-sulfonic acid (2-fluoro-benzyl)-(3′-methanesulfonyl-biphenyl-3-ylmethyl)-amide]

The next lines start with the compound.

Compound	IC50 (human LXR alpha)	IC50 (human LXR beta)
CN(Cc1ccc(-c2cccc(S(C)(=O)=O)c2)s1)S(=O)(=O)c1ccccc1C(F)(F)F [Example 27, N-[5-(3-Methanesulfonyl-phenyl)-thiophen-2-ylmethyl]-N-methyl-2-trifluoromethyl-benzenesulfonamide]	29200 nM	2610 nM
CCN(Cc1ccc(-c2cccc(S(C)(=O)=O)c2)s1)S(=O)(=O)c1ccccc1C(F)(F)F [Example 28, N-Ethyl-N-[5-(3-methanesulfonyl-phenyl)-thiophen-2-ylmethyl]-2-trifluoromethyl-benzenesulfonamide]	19900 nM	440 nM
CCCN(Cc1ccc(-c2cccc(S(C)(=O)=O)c2)s1)S(=O)(=O)c1ccccc1C(F)(F)F [Example 29, N-[5-(3-Methanesulfonyl-phenyl)-thiophen-2-ylmethyl]-N-propyl-2-trifluoromethyl-benzenesulfonamide]	2460 nM	104 nM
CC(C)N(Cc1ccc(-c2cccc(S(C)(=O)=O)c2)s1)S(=O)(=O)c1ccccc1C(F)(F)F [Example 30, N-Isopropyl-N-[5-(3-methanesulfonyl-phenyl)-thiophen-2-ylmethyl]-2-trifluoromethyl-benzenesulfonamide]	7860 nM	470 nM
CC(C)CN(Cc1ccc(-c2cccc(S(C)(=O)=O)c2)s1)S(=O)(=O)c1ccccc1C(F)(F)F [Example 31, N-Isobutyl-N-[5-(3-methanesulfonyl-phenyl)-thiophen-2-ylmethyl]-2-trifluoromethyl-benzenesulfonamide]	1460 nM	85 nM
CS(=O)(=O)c1cccc(-c2ccc(CN(CC3CC3)S(=O)(=O)c3ccccc3C(F)(F)F)s2)c1 [Example 32, N-Cyclopropylmethyl-N-[5-(3-methanesulfonyl-phenyl)-thiophen-2-ylmethyl]-2-trifluoromethyl-benzenesulfonamide]	845 nM	106 nM
CS(=O)(=O)c1cccc(-c2ccc(CN(Cc3ccccc3F)S(=O)(=O)c3ccccc3C(F)(F)F)s2)c1 [Example 33, N-(2-Fluoro-benzyl)-N-[5-(3-methanesulfonyl-phenyl)-thiophen-2-ylmethyl]-2-trifluoromethyl-benzenesulfonamide]	13.5 nM	6.6 nM
Cc1noc(C)c1CN(Cc1ccc(-c2cccc(S(C)(=O)=O)c2)s1)S(=O)(=O)c1ccccc1C(F)(F)F [Example 34, N-(3,5-Dimethyl-isoxazol-4-ylmethyl)-N-[5-(3-methanesulfonyl-phenyl)-thiophen-2-ylmethyl]-2-trifluoromethyl-benzenesulfonamide]	60.5 nM	83 nM
COCCN(Cc1ccc(-c2cccc(S(C)(=O)=O)c2)s1)S(=O)(=O)c1ccccc1C(F)(F)F [Example 35, N-[5-(3-Methanesulfonyl-phenyl)-thiophen-2-ylmethyl]-N-(2-methoxy-ethyl)-2-trifluoromethyl-benzenesulfonamide]	975 nM	116 nM
CS(=O)(=O)c1cccc(-c2ccc(CN(CC3CCC3)S(=O)(=O)c3ccccc3C(F)(F)F)s2)c1 [Example 36, N-Cyclobutylmethyl-N-[5-(3-methanesulfonyl-phenyl)-thiophen-2-ylmethyl]-2-trifluoromethyl-benzenesulfonamide]	665 nM	17.5 nM
CC(C)(C)OC(=O)CN(Cc1ccc(-c2cccc(S(C)(=O)=O)c2)s1)S(=O)(=O)c1ccccc1C(F)(F)F [Example 37, [[5-(3-Methanesulfonyl-phenyl)-thiophen-2-ylmethyl]-(2-trifluoromethyl-benzenesulfonyl)-amino]-acetic acid tert-butyl ester]	17.5 nM	11.5 nM
CCN(CC)C(=O)CN(Cc1ccc(-c2cccc(S(C)(=O)=O)c2)s1)S(=O)(=O)c1ccccc1C(F)(F)F [Example 38, N,N-Diethyl-2-[[5-(3-methanesulfonyl-phenyl)-thiophen-2-ylmethyl]-(2-trifluoromethyl-benzenesulfonyl)-amino]-acetamide]	2410 nM	160 nM
CS(=O)(=O)c1cccc(-c2ccc(CN(CC3OCCO3)S(=O)(=O)c3ccccc3C(F)(F)F)s2)c1 [Example 39, N-[1,3]Dioxolan-2-ylmethyl-N-[5-(3-methanesulfonyl-phenyl)-thiophen-2-ylmethyl]-2-trifluoromethyl-benzenesulfonamide]	820 nM	47 nM
CS(=O)(=O)c1cccc(-c2ccc(CN(CCN3CCCC3)S(=O)(=O)c3ccccc3C(F)(F)F)s2)c1 [Example 40, N-[5-(3-Methanesulfonyl-phenyl)-thiophen-2-ylmethyl]-N-(2-pyrrolidin-1-yl-ethyl)-2-trifluoromethyl-benzenesulfonamide]	10700 nM	285 nM
CS(=O)(=O)c1cccc(-c2ccc(CN(CC3CCCO3)S(=O)(=O)c3ccccc3C(F)(F)F)s2)c1 (centres unmarked) [Example 41, N-[5-(3-Methanesulfonyl-phenyl)-thiophen-2-ylmethyl]-N-(tetrahydro-furan-2-ylmethyl)-2-trifluoromethyl-benzenesulfonamide]	790 nM	37 nM
CC(C)CN(Cc1ccc(-c2cccc(S(C)(=O)=O)c2)cc1F)S(=O)(=O)c1ccccc1Cl [Example 42, 2-Chloro-N-(3-fluoro-3′-methanesulfonyl-biphenyl-4-ylmethyl)-N-isobutyl-benzenesulfonamide]	8.2 nM	6.8 nM
